Tests used:
[1] = logP determination by HPLC on a reversed-phase column (C18); assay type: physicochemical; conditions: for logP: HPLC, C18 reversed phase, acetonitrile/water with formic acid, EEC Directive 79/831 Annex V.A8; for log P: HPLC-MS; for logP^a): HPLC-MS method a)
[2] = test system: Rhipicephalus sanguineus; assay: Rhipicephalus sanguineus - in vitro contact tests with adult brown dog ticks; assay type: in vivo; conditions: application rate 5 μg/cm2; after 48 h; ticks dead or moribund
Method: For the coating of the test tubes, 9 mg of active ingredient are first dissolved in 1 ml of acetone p.a. and then diluted to the desired concentration with acetone p.a. 250 μl of the solution are distributed homogeneously on the inner walls and base of a 25 ml test tube by turning and rocking on an orbital shaker (rocking rotation at 30 rpm for 2 h). With 900 ppm active ingredient solution and internal surface 44.7 cm^2, given homogeneous distribution, an area-based dose of 5 μg/cm^2 is achieved.
After the solvent has evaporated off, the tubes are populated with 5-10 adult dog ticks (Rhipicephalus sanguineus), sealed with a perforated plastic lid and incubated in a horizontal position in the dark at room temperature and ambient humidity. After 48 h, efficacy is determined. To this end, the ticks are knocked to the floor of the tube and incubated on a hotplate at 45-50° C. for not more than 5 min. Ticks which remain motionless on the floor or move in such an uncoordinated manner that they are unable to deliberately avoid the heat by climbing upwards are considered to be dead or moribund.
An efficacy of 100% means that all the ticks were dead or moribund. 0% efficacy means that none of the ticks had been harmed.

[3] = test system: Ctenocephalides felis; assay: Ctenocephalides felis - in vitro contact tests with adult cat fleas; assay type: in vivo; conditions: application rate 5 μg/cm2 (=500 g/ha); after 48 h; fleas dead or moribund
Method in brief: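 Efficacy, as percentage of fleas dead or moribund, was scored at 48 h by knocking fleas to the tube base. Exposure was by contact with a dried acetone film of compound at 5 μg/cm^2 area dose; 5–10 adults per tube, room temperature, ambient humidity.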

[4] = test system: Boophilus microplus; assay: Boophilus microplus - injection test; assay type: in vivo; conditions: application rate 20 μg/animal; injection into engorged adult female ticks; after 7 days
Method in brief: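 Five engorged adult female cattle ticks each received a 1 μl abdominal injection of compound solution in dimethyl sulphoxide. Fertile egg laying was assessed at 7 days, with doubtful eggs incubated about 42 days until hatch. 0% efficacy means all eggs fertile.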

[5] = test system: Boophilus microplus Parkhurst strain, SP-resistant; assay: Boophilus microplus - dip test; assay type: in vivo; conditions: application rate 100 ppm; dip of engorged adult female ticks; after 7 days
Method: Test animals: cattle ticks (Boophilus microplus) Parkhurst strain, SP-resistant
Solvent: dimethyl sulphoxide
10 mg of active ingredient are dissolved in 0.5 ml of dimethyl sulphoxide. For the purpose of producing a suitable formulation, the active ingredient solution is diluted with water to the concentration desired in each case.
This active ingredient formulation is pipetted into tubes. 8-10 adult engorged female cattle ticks (Boophilus microplus) are transferred into a further tube with holes. The tube is immersed into the active ingredient formulation, and all the ticks are completely wetted. After the liquid has run out, the ticks are transferred on filter discs into plastic dishes and stored in a climate-controlled room.
Efficacy is assessed after 7 days by laying of fertile eggs. Eggs which are not visibly fertile are stored in a climate-controlled cabinet until the larvae hatch after about 42 days. An efficacy of 100% means that none of the ticks has laid any fertile eggs; 0% means that all the eggs are fertile.

[6] = test system: Ctenocephalides felis; assay: Ctenocephalides felis - oral test; assay type: in vivo; conditions: application rate 100 ppm in citrated cattle blood; after 2 days
Method in brief: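 Roughly 20 unfed adult C. felis imbibe compound-dosed citrated cattle blood (DMSO formulation) across parafilm from a cylinder above their gauze chamber; percentage mortality recorded at day 2.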

[7] = test system: Lucilia cuprina; assay: Lucilia cuprina test; assay type: in vivo; conditions: application rate 100 ppm; L1 larvae; after 2 days
Method in brief: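 Mortality (%) of first-instar blowfly larvae, about 20 per vessel, recorded 2 days after exposure to compound-treated minced horsemeat. Compound dissolved in dimethyl sulphoxide, then water-diluted to the desired concentration.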

[8] = test system: Musca domestica; assay: Musca domestica test; assay type: in vivo; conditions: application rate 100 ppm; adult houseflies; after 2 days
Method in brief: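 Water-diluted DMSO stock of compound, mixed onto a sugar-treated sponge, served as the sole exposure route for ten adult houseflies. Kill percentage scored at 2 days.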

[9] = test system: Myzus persicae; assay: Myzus persicae - spray test; assay type: in vivo; conditions: Chinese cabbage leaf discs, after 6 days
Method in brief: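 Mortality of the green peach aphid, as % killed, was read 6 days after spraying infested Brassica pekinensis leaf discs. Compound formulated in acetone/dimethylformamide and made up with emulsifier-containing (1000 ppm) water.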

[10] = test system: Phaedon cochleariae; assay: Phaedon cochleariae - spray test; assay type: in vivo; conditions: larvae on Chinese cabbage leaf discs, after 7 days
Method in brief: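 Mortality of mustard beetle larvae was scored as % at day 7 on Brassica pekinensis leaf discs. Discs had been treated by spraying at the desired concentration, using an acetone/dimethylformamide solution diluted in water with 1000 ppm alkylaryl polyglycol ether, and dried before larvae were added.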

[11] = test system: Spodoptera frugiperda; assay: Spodoptera frugiperda - spray test; assay type: in vivo; conditions: caterpillars on maize leaf discs, after 7 days
Method in brief: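 Percent mortality of Spodoptera frugiperda caterpillars scored 7 days after placing them on dried maize leaf discs sprayed at the desired concentration. Spray formulation: compound dissolved in acetone/dimethylformamide, made up with water containing 1000 ppm emulsifier.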

[12] = test system: Tetranychus urticae; assay: Tetranychus urticae - spray test, OP-resistant; assay type: in vivo; conditions: bean leaf discs, after 6 days
Method in brief: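 Mortality (%) read on day 6 after spraying Phaseolus vulgaris leaf discs carrying all mite stages with formulations at the desired concentration. Formulation: active ingredient in acetone plus dimethylformamide, made up with emulsifier-containing water (1000 ppm alkylaryl polyglycol ether).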

[13] = reversed-phase column (C18), Table I-T3

Compound | logP [1] | efficacy [2] [%] | efficacy [3] [%] | efficacy (laying of fertile eggs) [4] [%] | efficacy (laying of fertile eggs) [5] [%] | efficacy (kill) [6] [%] | efficacy (kill) [7] [%] | efficacy (kill) [8] [%] | efficacy ([9]; application rate 100 g/ha) [%] | efficacy ([10]; application rate 100 g/ha) [%] | efficacy ([11]; application rate 100 g/ha) [%] | efficacy ([12]; application rate 100 g/ha) [%] | log P [1, 13] | logP^a) [1] | logP^a) [1, 13] | other results
Cc1cc(C(F)(C(F)(F)F)C(F)(F)F)cc(C(F)(F)F)c1-c1cc(-c2ccc(Cl)c(C(=O)NC3(C#N)CC3)c2)on1 [I-T22-7] | 4.7 | 100 | 100 | 100 | 100 | 100 | 100 | 100 | 100 | 100 | 100 | 100 |  |  |  | 
O=C(NC1CC1)c1cc(-c2cnn(-c3c(Cl)cc(C(F)(C(F)(F)F)C(F)(F)F)cc3OC(F)F)c2)cnc1Cl [I-T3-196] |  | 100 | 100 |  |  |  |  |  |  |  |  |  | 3.9 |  |  | 
CCc1cc(C(F)(F)C(F)(F)F)cc(C)c1-n1cc(-c2ccc(Cl)c(C(=O)NC3(C#N)CC3)c2)cn1 [I-T3-80] |  | 80 | 100 | 100 | 80 | 100 | 100 | 100 | 90 | 100 | 100 | 100 |  | 4.2 | 4.2 | 
Cc1cc(C(F)(C(F)(F)F)C(F)(F)F)cc(C(F)(F)F)c1-n1cc(-c2ccc(Cl)c(C(=S)NC3CC3)c2)cn1 [I-T3-161, 2-chloro-N-cyclopropyl-5-[1-[2-methyl-4-[1,2,2,2-tetrafluoro-1-(trifluoromethyl)ethyl]-6-(trifluoromethyl)phenyl]pyrazo-4-yl]benzenecarbothioamide] | 5.0 | 100 |  | 100 |  | 100 | 100 | 100 |  | 100 | 100 | 100 | 5.0 |  |  | logP^a) ([1]; reversed-phase column (C18)): 5.0
O=C(NC1CC1)c1cc(-c2cnn(-c3c(Cl)cc(C(F)(C(F)(F)F)C(F)(F)F)cc3OC(F)(F)F)c2)cnc1Cl [I-T3-189] |  | 100 | 100 |  |  | 100 | 100 | 100 | 100 | 100 | 100 | 100 | 4.3 |  |  | 
Cc1cc(C(F)(C(F)(F)F)C(F)(F)F)cc(C(F)(F)F)c1-c1cc(-c2cnc(Cl)c(C(=O)NC3(C#N)CC3)c2)on1 [I-T22-4] | 4.4 | 100 |  | 100 | 100 | 100 |  |  |  | 100 |  | 100 |  |  |  | 
Cc1cc(C(F)(C(F)(F)F)C(F)(F)F)cc(C(F)(F)F)c1-c1cc(-c2cnc(Cl)c(C(=O)NC3CC3)c2)on1 [I-T22-6] | 4.5 | 100 |  | 100 | 100 | 95 | 100 | 90 |  | 100 |  |  |  |  |  | 
O=C(NC1CC1)c1cc(-c2cnn(-c3c(Cl)cc(OC(F)(F)F)cc3Cl)c2)ccc1Cl [I-T3-88] |  | 80 | 100 | 100 |  | 100 | 100 | 80 | 100 | 100 | 100 | 100 |  | 3.6 | 3.6 | 
CCc1cc(C(F)(C(F)(F)F)C(F)(F)F)ccc1-n1cc(-c2ccc(Cl)c(C(=O)NC3(C#N)CC3)c2)cn1 [I-T3-38] |  | 80 |  | 100 |  | 100 | 100 | 100 | 90 | 100 | 100 | 100 |  | 4.5 | 4.5 | 
COc1ncc(-c2cnn(-c3c(C)cc(C(F)(C(F)(F)F)C(F)(F)F)cc3C)c2)cc1C(=O)NC1CC1 [I-T3-143] |  | 80 | 100 | 100 |  | 100 | 100 | 100 |  | 100 | 100 |  | 4.6 |  |  | logP^a) ([1]; reversed-phase column (C18)): 4.6
O=C(NC1CC1)c1cc(-c2cnn(-c3ccc(OC(F)(F)F)cc3Cl)c2)ccc1Cl [I-T3-90] |  | 100 |  | 100 |  | 100 | 100 | 90 |  |  |  |  | 3.6 | 3.6 |  | efficacy ([10]; application rate 500 g/ha): 100%; efficacy ([11]; application rate 500 g/ha): 100%; efficacy ([12]; application rate 500 g/ha): 90%
CCc1cc(C(F)(C(F)(F)F)C(F)(F)F)cc(C)c1-n1cc(-c2ccc(Cl)c(C(=O)NC3(C#N)CC3)c2)cn1 [I-T3-46] |  | 100 | 100 | 100 |  | 100 | 100 | 100 |  |  |  |  |  | 4.6 | 4.6 | efficacy ([9]; application rate 500 g/ha): 100%; efficacy ([10]; application rate 500 g/ha): 100%; efficacy ([11]; application rate 500 g/ha): 100%; efficacy ([12]; application rate 500 g/ha): 100%
Cc1cc(C(F)(C(F)(F)F)C(F)(F)F)cc(C)c1-c1cnn(-c2ccc(Cl)c(C(=O)NC3(C#N)CC3)c2)c1 [I-T4-2] | 4.6 | 100 | 100 | 100 |  | 100 | 100 | 100 |  | 100 | 100 | 100 |  |  |  | efficacy ([9]; application rate 20 g/ha): 90%
